“Also recorded” adds a separate entry of the source.
Tests used:
[1] = tested on: SW620 cells; assay: cells; details: for Relative viability: human, 72 h
Description: The first assay implements the growth of mammalian cells in a 96 well plate format on tissue culture plates.
1.) The media contains a maximum of 2 mM aminoguanidine and a minimum of 0.25 mM aminoguanidine to prevent a cell culture artifact (i.e., degradation of native polyamines and PTI structures that contain terminal amine structures (e.g., trimer 3c) by bovine serum amine oxidases present in the cell culture media). As a general rule, aminoguanidine (AG) is not dosed at a concentration which induces 20% or more cytostasis in the cell line examined. This minimizes AG side-effects. All of the following treatments are begun 24 hours after seeding the cells.
3.) The maximum tolerated dose (MTD) of the PTI is determined by titrating it without the presence of DFMO or polyamine. The MTD is defined as the maximum concentration of the drug (e.g., PTI) that is shown to keep 100% of the cell population alive compared to the control ±10%.
(§1) This is defined as the “MTD under DFMO treatment.”
6.) The combination of DFMO, polyamine, and PTI are treated concomitantly after 24 hours of growth in a 96-well tissue culture treated plate. The duration of treatment is determined by step 2 for all three reagents. The concentration of DFMO is determined in step 2, the concentration of polyamine is determined in step 4 and the concentration of PTI is determined by step 3, the MTD. Note if the MTD of the PTI is altered by the presence of DFMO then the “MTD under DFMO treatment” is used as determined in step 6. The untreated control cells, DFMO only treatment, and DFMO+polyamine treatment, must be shown on the same plate as the experimental samples with PTI to ensure that these controls are working properly.
The first assay measures the ability of the new transport inhibitors to block rescue of DFMO-treated cells by putrescine (a native polyamine).

[2] = tested on: MiaPaca-2 pancreatic cancer; assay: Block of putrescine rescue of DFMO-treated cells; format: cell-based, human
Description: The MTD under DFMO treatment of 3c in this cell line is 1 μM and as such the therapy became toxic at 2 μM. If the therapy is not toxic to normal cells, then this therapy is also valid for concentrations above 1 μM. All treatments (DFMO, putrescine, and 3c) were dosed simultaneously and for a duration of 96 hours.

[3] = tested on: SW480; assay: Response of cell growth to DFMO; format: cell-based
[4] = tested on: RKO; assay: Response of cell growth to DFMO; format: cell-based
[5] = tested on: HCT-116; assay: Response of cell growth to DFMO; format: cell-based
[6] = tested on: Panc-1; assay: Response of cell growth to DFMO; format: cell-based
[7] = tested on: CHO-K1 cells; assay: Block of uptake of cytotoxic PAT probe Ant44 (cell rescue); format: cell-based, Chinese hamster; details: for PAT inhibition: block of uptake of Ant44 at non-toxic concentrations; for rescue of cells from Ant44: inhibitor at 0.1 uM; for toxicity of inhibitor to cells: inhibitor at 100 uM in the presence of Ant44 (0.5 uM)
Description: FIG. 6. In CHO-K1 cells, cytotoxic compound Ant44 was dosed at 0.5 μM in the presence of 2 mM aminoguanidine and either Triamide 5c or Trimer 3c at varying concentrations then incubated for 48 hours. […] Note: 5c was able to rescue the CHO cells from Ant44 but required a higher dose of 5c (1 uM). Note: […] Note that all experiments performed contained a maximum of 2 mM aminoguanidine to prevent break-down of polyamine analogues in the serum. This cell culture artifact only arises due to bovine copper-dependent serum amine oxidases which are not present in humans and are therefore not of a concern. […] This is reflective upon their low Ki values observed in L1210 cells (Phanstiel reference).
FIG. 7. In CHO-K1 cells, the PAT-selective cytotoxic agent Ant44 was dosed at 0.5 μM in the presence of Trimer 3c at varying concentrations (in nM) and incubated for 48 hours. Note that 2 mM aminoguanidine was added to the media to blockade degradation by serum amine oxidases.
In this manner, the PTI (e.g. 1 uM) dosed at completely non-toxic concentrations was able to block the uptake of the toxic Ant44 compound (Ant44 dosed at its IC50 value, 0.5 uM). […] These experiments (FIGS. 6 and 7) were done in Chinese hamster ovary cells (CHO-K1) cells.

[8] = tested on: import of putrescine; assay: Selectivity of blocking import of native polyamines; format: cell-based; details: putrescine versus spermidine and spermine, at the dosage used
[9] = tested on: L3.6pl cells; assay: Block of spermidine rescue of DFMO-treated cells; format: cell-based, human
Description: FIG. 3 is a chart showing the block of spermidine rescue by trimer in a does dependent fashion in L3.6pl cells. […] This minimizes AG side-effects. […] The second assay measures the ability of the new transport inhibitor (the trimer 3c) to block rescue of DFMO-treated cells by spermidine. […] As shown below, the L3.6pl cells were dosed with 5 mM DFMO, which reduced their viability during the 48 hour incubation period to 60% of the control growth without DFMO (2nd column). However, these cells were rescued by the addition of exogenous spermidine (0.5 µM, 3rd column). […] However, in the presence of the trimer (i.e., the polyamine transport inhibitor 3c) we were able to block this rescue effect of spermidine (Spd) in a dose-dependent fashion (3c: 0.1 to 5 µM). For example, 3c at 2 µM in the presence of DFMO (5 mM)+spermidine (0.5 µM) gave 60% viability (7th column). Without the presence of the trimer, spermidine rescues the cells and one observes >90% viability (3rd column). The resulting data is in Table 1 and FIG. 3.

[10] = tested on: L3.6pl metastatic pancreatic cancer; assay: Block of putrescine rescue of DFMO-treated cells; format: cell-based, human
Description: The MTD of 3c in this cell line is 5 μM. All treatments (DFMO, putrescine, and 3c) were dosed simultaneously and for a duration of 72 hours.
The MTD of 3c in this cell line is 5 μM. All treatments (DFMO, putrescine, and 3c) were dosed simultaneously and for a duration of 48 hours.

[11] = tested on: L3.6pl metastatic pancreatic cancer; assay: Maximum tolerated dose (MTD) of the PTI; format: cell-based; details: L3.6pl cell line
[12] = tested on: MiaPaca-2 pancreatic cancer; assay: MTD under DFMO treatment; format: cell-based
Text: as §1

difluoromethylornithine [DFMO]
reduction in growth ([1]; DFMO (1 mM), MTS assay): 50% | DFMO reduction in cell growth ([2]; 48, 72 and 96 hours): time dependent | response to DFMO [3]: respond to DFMO in a time dependent matter | response to DFMO [4]: respond to DFMO in a time dependent matter | response to DFMO [5]: respond to DFMO in a time dependent matter | response to DFMO [6]: respond to DFMO in a time dependent matter

NCCCCN [Putrescine, putrescine, reference compound]
viability at 1 µM ([1]; Homo sapiens, SW-620, 72 h, read-out: Relative viability): 100%

NCCCCNCCCCNC(=O)c1cc(C(=O)NCCCCNCCCCN)cc(C(=O)NCCCCNCCCCN)c1 [5c, Benzene-1,3,5-tricarboxylic acid tris-{[4-(4-amino-butylamino)-butyl]-amide}]
dose required to rescue the CHO cells from Ant44 ([7]; Ant44 0.5 uM, 48 hours): 1 µM | PAT inhibition [7]: potent PAT inhibitors | rescue of cells from Ant44 ([7]; Ant44 0.5 uM, 48 hours): unable to rescue | toxicity of inhibitor to cells [7]: moderate toxicity | selectivity of blocking import of native polyamines [8]: selectively blocks import of putrescine; also recorded: specific for putrescine

NCCCCNCCCN [spermidine, reference compound]
% Viability ([9]; 5 mM DFMO + 0.5 uM Spd, no trimer, 48 hour): > 90% | % Viability ([9]; 5 mM DFMO + 0.5 uM Spd, no trimer, 48 hour, listed as Spd): 91%

NCCCCNCCCCNCc1cc(CNCCCCNCCCCN)cc(CNCCCCNCCCCN)c1 [3c, N-(4-Amino-butyl)-N′-(3,5-bis-{[4-(4-amino-butylamino)-butylamino]-methyl}-benzyl)-butane-1,4-diamine]
Relative viability ([1]; 0.1 uM): 100% | Relative viability ([1]; 0.5 uM): 75% | % Viability ([9]; 5 mM DFMO + 0.5 uM Spd + trimer 0.1, 48 hour): 90% | % Viability ([9]; 5 mM DFMO + 0.5 uM Spd + trimer 0.5, 48 hour): 88% | % Viability ([9]; 5 mM DFMO + 0.5 uM Spd + trimer 1, 48 hour): 73% | % Viability ([9]; 5 mM DFMO + 0.5 uM Spd + trimer 2, 48 hour): 60% | % Viability ([9]; 5 mM DFMO + 0.5 uM Spd + trimer 3, 48 hour): 53% | % Viability ([9]; 5 mM DFMO + 0.5 uM Spd + trimer 5, 48 hour): 45% | concentration able to protect CHO-K1 cells from Ant44 ([7]; Ant44 0.5 uM, 2 mM aminoguanidine, 48 hours, further titration): 80 nM | PAT inhibition [7]: potent PAT inhibitors | rescue of cells from Ant44 ([7]; Ant44 0.5 uM, 48 hours): complete rescue | toxicity of inhibitor to cells [7]: moderate toxicity | concentration from which treatment is effective ([10]; competing with 0.5 μM of putrescine, 48 hours): 0.5 µM | concentration from which treatment is effective ([10]; competing with 1 μM of putrescine, 72 hours): 1 µM | treatment effect ([2]; 0.5 μM of 3c, 0.5 μM of putrescine, DFMO, 96 hours): incomplete but effective treatment | concentration from which treatment is effective ([2]; competing with 0.5 μM of putrescine, with DFMO, 96 hours): 1 µM | MTD [11]: 5 µM | MTD under DFMO treatment ([12]; MiaPaca-2, 96 hours): 1 µM | concentration at which the therapy became toxic ([12]; MiaPaca-2, with DFMO, 96 hours): 2 µM

NCCCCNCCCCNCc1c2ccccc2cc2ccccc12 [Ant44, anthracen-9-ylmethyl-homospermidine conjugate, reference compound]
viability relative to untreated CHO-K1 cells ([7]; Ant44 0.5 uM without PAT inhibitor, 2 mM aminoguanidine, 48 hours): 40% | IC50 ([7]; cytotoxicity of Ant44, CHO-K1): 0.5 µM

From patent US9730902B2, “Polyamine transport inhibitors as novel therapeutics” (University of Central Florida Research Foundation, Inc., priority 2009, dated 2017)
